Values of other authors as cited in patent US10039772B2, “Methods and compositions for treating alcohol use disorders” (priority 2015, dated 2018).
Like-named read-outs stand apart in the source and are kept apart here.

Tested on: 11β-HSD1, 11β-HSD2
Details: cited from earlier work
[1] = 11β-HSD isozyme specificity per cited reference

| SMILES | Specificity [1] | Specificity |
| --- | --- | --- |
| O=C(NC1C2CC3CC(C2)CC1C3)N1CCCCC1 (centres unmarked) [Number 76] | 11β- HSD1 > 2 | – |
| CN(Cc1cccs1)C(=O)C12CC3CC(CC(C3)C1)C2 [Number 119] | 11β- HSD1 > 2 | – |
| CC1CCN(C(=O)c2cccc(CSc3c(Cl)cccc3Cl)n2)CC1 [Number 68] | 11β- HSD1 > 2 | – |
| CC(C)(C(=O)NC1C2CC3CC1CC(C(N)=O)(C3)C2)N1CCN(c2ccc(C(F)(F)F)cn2)CC1 (centres unmarked) [Number 60] | 11β- HSD1 > 2 | – |
| N#Cc1ncccc1CSc1nc(O)c(C#N)c2c1COCC2 [Number 70] | – | 11β- HSD1 > 2 |
| COc1cc(C(=O)N2CCC(n3c(=O)[nH]c4ccccc43)CC2)ccc1C [Number 8] | 11β- HSD1 > 2 | – |
| CCCCCC12CCC(c3nnc(-c4ccccc4C(F)(F)F)n3C)(CC1)CC2 [Number 28] | 11β- HSD1 > 2 | – |
| COc1ccc(C(=O)N2CCC(c3c[nH]c4ccccc34)C2)c(C)c1 (centres unmarked) [Number 97] | 11β- HSD1 > 2 | – |
| Cn1c(-c2ccc(-c3cnccn3)cc2Cl)nnc1[C@]1(c2ccc(Cl)cc2)C[C@@H](F)C1 [Number 27] | 11β- HSD1 > 2 | – |
| O=C(O)CC1(CC(=O)NCc2ccc(F)cc2Cl)CCCC1 [Number 93] | 11β- HSD1 > 2 | – |
| CC(C)(C)c1c(C(=O)NC2C3CC4CC(C3)CC2C4)cnn1-c1ccc(C(=O)O)cc1 (centres unmarked) [Number 52] | 11β- HSD1 > 2 | – |
| F[C@H]1C[C@](c2ccc(Cl)cc2)(c2nnc(C3CC3)n2C2CC2)C1 [Number 25] | 11β- HSD1 > 2 | – |
| CC(=O)O[C@H]1CC[C@]2(C)[C@H]3C(=O)C=C4[C@H]5C[C@@](C)(NS(C)(=O)=O)CC[C@]5(C)CC[C@@]4(C)[C@]3(C)CC[C@H]2C1(C)C [Number 251] | 11β- HSD1 > 2 | – |
| O=C(N[C@H]1C2CC3CC1C[C@@](O)(C3)C2)c1cnc(N[C@H]2CCOC2)nc1C1CCCC1 [Number 49] | 11β- HSD1 > 2 | – |
| O=S1(=O)N=C(NC2CCCCC2)O[C@H]2CCCC[C@H]21 [Number 102] | – | 11β- HSD1 > 2 |
| C[C@]1(C(=O)N[C@H]2C3CC4CC2C[C@@](O)(C4)C3)CCCN1S(=O)(=O)c1cccc2cccnc12 [Number 90] | 11β- HSD1 > 2 | – |
| Cn1c(-c2ccc(-c3cccc(S(C)(=O)=O)c3)cc2Cl)nnc1C1(c2ccc(Cl)cc2)CCC1 [Number 26] | 11β- HSD1 > 2 | – |
| C[C@H](NC1=NC(=O)[C@@](C)(C(C)(C)O)S1)c1ccc(F)cc1 [Number 10] | 11β- HSD1 > 2 | – |
| Cc1ccc(-n2nnnc2SCC(=O)C(C)(C)C)c(C)c1 [Number 112] | 11β- HSD1 > 2 | – |
| C[C@](O)(c1ccc(C(=O)N(C2CC2)C2CCN(CC3(C(N)=O)CC3)CC2)cc1)C(F)(F)F [Number 18] | – | 11β- HSD1 > 2 |
| CCS(=O)(=O)CCCC12CCC(c3nnc(-c4ccccc4C(F)(F)F)n3C)(CC1)CC2 [Number 29] | 11β- HSD1 > 2 | – |
| Cc1c(Cl)cccc1S(=O)(=O)N1CCCC[C@@H]1C(=O)N[C@H]1C2CC3CC1C[C@](O)(C3)C2 [Number 89] | – | 11β- HSD1 > 2 |
| COc1ccc(-c2cnc(N3CCN(C(=O)N4CCC(c5cn[nH]c5)C4)c4ccccc43)nc2)cc1 (centres unmarked) [Number 100] | 11β- HSD1 > 2 | – |
| CCCSc1ncccc1C(=O)NC1CCCCC1 [Number 46] | 11β- HSD1 > 2 | – |
| O=C(CN1C(C(=O)c2ccccc2)=C(O)c2ccccc2S1(=O)=O)c1ccccc1 [Number 91] | 11β- HSD1 > 2 | – |

| SMILES | Specificity [1] | Specificity |
| --- | --- | --- |
| Nc1c(Cl)cc(C(=O)N(C2CCCC2)C2CC2)cc1Cl [Number 54] | 11β- HSD1 > 2 | – |
| CC(C)(Oc1ccc(Cl)cc1)C(=O)Nc1nnn[nH]1 [Number 116] | 11β- HSD1 > 2 | – |
| Cc1c(Cl)cccc1S(=O)(=O)N1CCC[C@@H](C(=O)N[C@H]2C[C@@H]3CC[C@@]2(C)C3(C)C)C1 [Number 87] | 11β- HSD1 > 2 | – |
| CN(C)C(=O)c1ccc(COCC(=O)C23CC4CC(CC(C4)C2)C3)cc1 [Number 121] | 11β- HSD1 > 2 | – |
| C[C@@H](c1ccc(-c2ccc(F)cc2F)cc1)N1CC[C@](CCO)(c2ccc(F)cc2)OC1=O [Number 81] | – | 11β- HSD1 > 2 |
| CC(C)N(c1ccc([C@](C)(O)C(F)(F)F)cc1)S(=O)(=O)c1cc(Cl)ccc1Cl [Number 20] | 11β- HSD1 > 2 | – |
| CO[C@@H]1C[C@H]2CC[C@@H](C1)N2S(=O)(=O)c1ccc(C(C)(C)C)cc1 [Number 32] | – | 11β- HSD1 > 2 |
| CN(C(=O)N1CCC(CN2C(=O)Nc3ccc(Cl)cc3S2(=O)=O)CC1)C1CCCCCC1 [Number 86] | 11β- HSD1 > 2 | – |
| CCCSc1nc(N2CCC[C@@H](CC(=O)O)C2)ccc1C(=O)NC1CCCCC1 [Number 47] | – | 11β- HSD1 > 2 |
| CC1(C)CCN([C@H]2C3CC4CC2C[C@@](O)(C4)C3)C(=O)c2cnn(-c3ccc(Cl)cc3)c21 [Number 110] | 11β- HSD1 > 2 | – |
| COc1ccc2nc(NS(=O)(=O)c3ccccc3)sc2c1 [Number 115] | 11β- HSD1 > 2 | – |
| Cc1c(Cl)cccc1S(=O)(=O)N1CCCC[C@@H]1C(=O)N[C@H]1C2CC3CC1C[C@](O)(C3)C2 [Number 88] | – | 11β- HSD1 > 2 |
| Cc1c(Cl)cccc1Oc1cccn2c(C34CCC(O)(CC3)CC4)nnc12 [Number 72] | 11β- HSD1 > 2 | – |
| CC(C)(CC(=O)NC1CC1)CC(=O)N[C@H]1C2CC3CC1C[C@@](O)(C3)C2 [Number 94] | 11β- HSD1 > 2 | – |
| CC(C)(C)N1CCN(c2ccc(N3CCN(C(=O)N[C@H]4C5CC6CC4C[C@@](C(N)=O)(C6)C5)c4ccccc43)nc2)CC1 [Number 101] | 11β- HSD1 > 2 | – |
| CC(C)[C@]1(C)SC(N[C@H]2C[C@H]3C[C@@H]2C[C@@H]3O)=NC1=O [Number 14] | – | 11β- HSD1 > 2 |
| O=C(CN1CCN(c2ccc(C(F)(F)F)cn2)CC1)NC1C2CC3CC1CC(O)(C3)C2 (centres unmarked) [Number 59] | 11β- HSD1 > 2 | – |
| CC(C)[C@]1(C)SC(N[C@H]2C[C@@H]3CC[C@H]2C3)=NC1=O [Number 13] | – | 11β- HSD1 > 2 |
| O=C(OC1C2CC3CC(C2)CC1C3)N1CCCCC1 (centres unmarked) [Number 78] | 11β- HSD1 > 2 | – |
| CCN(C(=O)c1ccc([C@@](C)(O)C(F)(F)F)cc1)C1CCCCC1 [Number 16] | 11β- HSD1 > 2 | – |
| C[C@H](NC1=NC(=O)[C@@](C)(C(F)(F)F)S1)c1ccccc1F [Number 11] | 11β- HSD1 > 2 | – |
| CN(C(=O)c1csc(CNS(=O)(=O)c2cccc(Cl)c2)n1)C1CCCCCC1 [Number 85] | 11β- HSD1 > 2 | – |
| C[C@@H]1CN(c2ncc(F)cc2C(F)(F)F)CCN1S(=O)(=O)c1cccc(-n2cncn2)c1 [Number 42] | 11β- HSD1 > 2 | – |
| Cc1c(Cl)cccc1S(=O)(=O)Nc1nc(CCN2CCOCC2=O)cs1 [Number 7, 3-chloro-2-methyl-N-{4-[2-(3-oxo-4-morpholinyl)ethyl]-1,3-thiazol-2-yl}benzenesulfonamide] | 11β- HSD1 > 2 | – |
| COc1ccc(C(=O)N2CCCC(c3ccccc3)CC2)cc1 (centres unmarked) [Number 107] | 11β- HSD1 > 2 | – |

| SMILES | Specificity [1] | Specificity |
| --- | --- | --- |
| O=C(O)C[C@H]1CC2(CCN(C(=O)NC3C4CC5CC(C4)CC3C5)CC2)c2c(Br)cccc21 (some centres unmarked) [Number 77] | 11β- HSD1 > 2 | – |
| O=C(Nc1ccc(C(=O)N2CCC[C@H]3CCCC[C@@H]32)c2ccccc12)c1ccc(Cl)cc1Cl [Number 106] | 11β- HSD1 > 2 | – |
| O=C(O)CC1(c2ccc(F)cc2)C2CCCC1CCC2 (centres unmarked) [Number 74] | 11β- HSD1 > 2 | – |
| Cc1ccc(S(=O)(=O)N2CCN(c3nc4ccccc4n3C)CC2)cc1 [Number 126] | 11β- HSD1 > 2 | – |
| Cc1cccc(N2CCC(C)(c3ccccc3)OC2=O)c1 (centres unmarked) [Number 80] | – | 11β- HSD1 > 2 |
| CC(C(=O)NC1C2CC3CC1CC(O)(C3)C2)N1CCN(c2ccc(C(F)(F)F)cn2)CC1 (centres unmarked) [Number 66] | – | 11β- HSD1 > 2 |
| O=C(Nc1cccc(C(=O)N2CCC[C@H]3CCCC[C@@H]32)c1)c1ccccc1 [Number 104] | – | 11β- HSD1 > 2 |
| C[C@@H]1CN(c2ccc(F)cc2C(F)(F)F)CCN1S(=O)(=O)c1cccc([C@@](C)(O)C(F)(F)F)c1 [Number 43] | 11β- HSD1 > 2 | – |
| CC(C)(C(=O)N1CCC(c2c[nH]c3ncccc23)C1)c1ccc(Cl)cc1 (centres unmarked) [Number 98] | 11β- HSD1 > 2 | – |
| COc1cc(C(=O)Nc2ccc(C(=O)N3CCCCC3)c(O)c2)cc(OC)c1OC [Number 105] | 11β- HSD1 > 2 | – |
| CCC1(CC)OC(N[C@@H](C)c2ccccc2C(F)(F)F)=NC1=O [Number 9] | 11β- HSD1 > 2 | – |
| CC1CCN(C(=O)c2ccc(CSc3ccc(Cl)cc3)cc2)CC1 [Number 67] | – | 11β- HSD1 > 2 |
| CS(=O)(=O)NCCC(=O)N1CCC(c2cc(C(=O)N3CCC[C@H]4CCCC[C@H]43)cs2)CC1 [Number 114] | 11β- HSD1 > 2 | – |
| O=S(=O)(c1ccc(Cl)c(Cl)c1)N1CCN(c2ncccc2C(F)(F)F)CC1 [Number 41] | 11β- HSD1 > 2 | – |
| CCCN(C(=O)c1ccc(CNS(=O)(=O)c2cccc(Cl)c2)cc1)C1CCCCCC1 [Number 83] | 11β- HSD1 > 2 | – |
| O=C(N1CCC(c2c[nH]cn2)CC1)N1CCCc2ccccc21 [Number 99] | 11β- HSD1 > 2 | – |
| CCN(CC)C(=O)Cc1csc(NS(=O)(=O)c2cccc(Cl)c2C)n1 [Number 6] | 11β- HSD1 > 2 | – |
| O=C1CC2(CCN(C(=O)C3(c4ccccc4)CC3)CC2)Oc2ccc(F)cc21 [Number 95] | 11β- HSD1 > 2 | – |
| N#Cc1c(O)nc(SCc2ccccc2Cl)nc1-c1ccccc1 [Number 69] | 11β- HSD1 > 2 | – |
| Cc1nc2c(Cl)c(NS(=O)(=O)c3cc(Cl)ccc3Cl)ccc2s1 [Number 117] | 11β- HSD1 > 2 | – |
| O[C@]12CC[C@](c3nnc4c(Oc5ccccc5Cl)cccn43)(CC1)C2 [Number 75] | 11β- HSD1 > 2 | – |
| C[C@](O)(c1ccc(C(=O)N(C2CC2)C2CCC(CCC(N)=O)(c3ccccc3)CC2)cc1)C(F)(F)F (some centres unmarked) [Number 19] | – | 11β- HSD1 > 2 |
| CC1(C)[C@@H](O)CC[C@]2(C)[C@H]3C(=O)C=C4[C@@](C)(CC[C@@]5(C)CC[C@@]6(C)C[C@@]45OC6=O)[C@]3(C)CC[C@@H]12 [Number 248] | 11β- HSD1 > 2 | – |
| Cc1ccc(C2(C(=O)N(C)Cc3cccs3)CC2)cc1 [Number 120] | 11β- HSD1 > 2 | – |
